Reference: a melting point compilation (Tetko et al.; mined from patent text by program, amines drawn as free bases though some values may be those of a salt)

| SMILES | melting point |
| --- | --- |
| COc1cccc(-n2c(=O)n(OCc3ccccc3)c(=O)c3cc(F)c(F)cc32)c1 | 157 to 158 °C |
| O=C(O)c1ccc(C(F)F)s1 | 111 to 112 °C |
| OC1CSC(Oc2cncc(-c3cccnc3)c2)C(O)C1O (centres undefined) | 203 °C |
| Cc1cnccc1N1CCN(CC(=O)c2ccc(NS(C)(=O)=O)cc2)CC1 | 201 to 205 °C |
| CCOC(=O)C(CNC(=O)c1ccccc1)C(=O)C(F)(F)F (centres undefined) | 85 to 88 °C |
| COc1cc2ncnc(N3CCc4cc(OCc5ccccc5)ccc43)c2cc1OC | 181 to 182 °C |
| CCOC(=O)c1cc2c(F)cccc2nc1Cl | 97 °C |
| CCOC(=O)c1ccc2c(c1)C(=C1CCN(C)CC1)c1ccccc1CC2 | 85 to 87 °C |
| COC(=O)Nc1nc2cc(SCC3CCCCC3)ccc2[nH]1 | 200 to 204 °C |
| O=C(O)C(=O)c1ccc(Br)s1 | 119 to 120 °C |
| CC(C)S(=O)(=O)NC(=O)c1cccc(N)c1 | 190 to 193 °C |
| NC1=NS(=O)(=O)Nc2cccc(OC3CCCCC3)c21 | 215 to 216 °C |
| CC(C)(C)OC(=O)Nc1ccc(C#Cc2ccccc2F)cc1N | 137 to 139 °C |
| O=C(O)C1(c2ccc(Nc3nc(N4CCCC4)nc4c3CCC4)cc2)CCC1 | 245 to 247 °C |
| CS(=O)(=O)c1ccc(-n2ncc(C#N)c2-c2ccc(-c3ccco3)cc2)cc1F | 153 to 157 °C |
| CN(Cc1ccc(NC(=O)C2=Cc3cc(Br)ccc3N(C3CC3)CC2)cc1)C1CCOCC1 | 133 to 136 °C |
| CCOC(=O)C1=C(C)N2CCNC2=C(C(=O)OCC)C1c1cccc(C(=O)OCC)c1 (centres undefined) | 149 °C |
| CN(Cc1cc2c(=O)c(C(=O)NCc3ccc(Cl)cc3)cn(C)c2o1)CC(O)c1cccnc1 (centres undefined) | 145 to 149 °C |
| CC1=NN(c2ccccc2)C(=O)C1C(=O)Nc1ccc(O)cc1 (centres undefined) | 135 to 140 °C |
| NC(=O)N1CC(Oc2ccccc2)C1 | 179 to 186 °C |
| O=[N+]([O-])c1ccc2c(c1)ncn2-c1cccc(-c2nccs2)c1 | 251 to 260 °C |
| CCOP(=O)(Cc1c(C)cc(O)cc1C1CCCCC1)OCC | 73 °C |
| COc1ccc2cc([C@H](C)C(=O)OCCN3CCC(C)(SN=O)CC3)ccc2c1 | 131 °C |
| CN(C)CCC(=O)Nc1ccc2[nH]c3ccc(NC(=O)CCN(C)C)cc3c(=O)c2c1 | > 320 °C |
| NC(=O)N1CC(c2ccccc2)c2ccccc21 (centres undefined) | 144 to 145 °C |
| O=C(O)c1ccc(NCc2ccc(Cl)s2)cc1 | 177 to 178 °C |

| SMILES | melting point |
| --- | --- |
| O=C(Cc1ccc2[nH]cc(CCN3C(=O)c4ccccc4C3=O)c2c1)NCc1ccccc1 | 165 to 166 °C |
| CCCCNCc1ccc2cc(O)ccc2c1 | 108 to 112 °C |
| COc1cc(O)nc2cc(-c3cc(C)c(O)c(C)c3)[nH]c(=O)c12 | > 330 °C |
| O=C1C2CCCCN2C(=O)N1c1c(F)cc(Cl)c2nc(Cl)sc12 (centres undefined) | 168 to 170 °C |
| NS(=O)(=O)c1cc(C(=O)Nn2cnc3cc(C(F)(F)F)ccc32)ccc1Cl | 164 °C |
| COc1ccc(-c2nc(O)cc(O)n2)cc1 | 318 °C |
| NC(CCNc1ccc(C(O)(C(F)(F)F)C(F)(F)F)cc1)c1ccc(F)cc1 (centres undefined) | 136 to 137 °C |
| Cc1nccc2[nH]c(=O)c(C(=O)O)cc12 | 255 to 257 °C |
| CCC1CCN(C(=O)C(N)CCSCc2cn(C(c3ccccc3)(c3ccccc3)c3ccccc3)cn2)CC1 (centres undefined) | 115 to 120 °C |
| CC(C)(C)OC(=O)NC12CCC1CNC2 (centres undefined) | 113 to 116 °C |
| O=C(C=Cc1cccc(S(=O)(=O)NCc2cccc3ccccc23)c1)NO | 177 °C |
| Nc1ccc(-n2ccnc2S(=O)Cc2ccccc2N2CCOCC2)nc1 (centres undefined) | 190 to 192 °C |
| COc1cc(N)c(Cl)cc1C(=O)NC1CCN(CCC(O)C(=O)c2ccc(F)cc2)CC1OC (centres undefined) | 146 °C |
| CN(C)C=Nc1nc(OS(=O)(=O)c2ccccc2)ncc1F | 124 to 125 °C |
| CCCCC(CC)C(=O)Nc1ccc2cnn(Cc3ccc(C(=O)OC)cc3OC)c2c1 (centres undefined) | 136 °C |
| OCC(O)Cc1nccn1CCCCc1ccc(OCc2coc(/C=C/c3ccc(F)cc3)n2)cc1 (centres undefined) | 114 to 116 °C |
| Nc1ncnc2sc(Cc3ccccc3)c(-c3ccc([N+](=O)[O-])cc3)c12 | 231 to 233 °C |
| CCCC(NS(=O)(=O)c1ccc(Cl)cc1)C(=S)Nc1ccc(CC(=O)O)cc1 (racemic) | 170 to 177 °C |
| CCOC(=O)Nc1cc(C(C)C(O)(Cn2cncn2)c2ccc(F)cc2F)ccn1 (centres undefined) | 177 to 179 °C |
| COC(=O)c1ccc(OS(N)(=O)=O)cc1 | 116 to 118 °C |
| N#Cc1ccc(OCCCOc2cccc(-c3cc4ccc(C#N)cc4o3)c2)cc1 | 128 to 129 °C |
| CC(C)(C)NC(=O)c1ccccc1-c1ccc(CBr)cc1 | 124 to 126 °C |
| N#CN1CCN2c3ccccc3Cc3ccccc3C2C1 (centres undefined) | 164 to 166 °C |
| CC(Oc1ccc(S(C)=O)cc1)c1ccnc2ncnn12 (centres undefined) | 89 to 102 °C |
| OCCc1ccc(Oc2cc(C(F)(F)F)ccn2)cc1 | 78 to 79 °C |
| CS(=O)(=O)c1ccc2ncn(/C=C/C(=O)O)c(=O)c2c1 | 284 to 290 °C |

| SMILES | melting point |
| --- | --- |
| O=C(O)c1cccc(-n2cnc3cc(-c4ccoc4)ccc32)c1 | 272 to 274 °C |
| CN1N=CC(=CNCc2ccc(F)cc2F)C1=O | 181 to 182 °C |
| CC1CN(Cc2ccccc2)CC1=NO (centres undefined) | 85 to 94 °C |
| CCOC(=O)CNC(=O)c1nnc2ccc(NCCCN3CCC(OC(c4ccccc4)c4ccccc4)CC3)nn12 | 152 to 155 °C |
| O=C(CCCS(=O)c1ccc(Cl)cc1)NO (centres undefined) | 126 to 127 °C |
| CCOC(=O)c1cn2c3c(cc(F)cc3c1=O)C1CCCCC12 (centres undefined) | 97 to 98 °C |
| CC(C)c1cc(N(C)C)cc2c1C(=O)N(COC(=O)c1c(Cl)cccc1Cl)S2(=O)=O | 177 to 179 °C |
| c1nc(SCC2CCCC2)n[nH]1 | 48 to 55 °C |
| O=C1NC(=O)C(CCCc2ccc(O)cc2)O1 (centres undefined) | 132 to 133 °C |
| CCc1cccc(CC(=O)O)c1OCCCc1cn(-c2ncc(C(F)(F)F)cc2Cl)nc1C(C)C | 93 to 95 °C |
| Nc1ccc(Oc2ccccc2Oc2ccc(N)c(O)c2)cc1O | > 180 °C |
| CCCCCCc1cnn(-c2ccccn2)c1O | 37 to 38 °C |
| C[C@H]1OC(=O)N[C@@H]1C(=O)NCCO[N+](=O)[O-] | 81.5 to 82.5 °C |
| CCOC(=O)CC(=O)c1cc(F)c(O)nc1Nc1ccc(F)cc1F | 161 to 162 °C |
| CCOC(=O)c1cnc2c(c(C)nn2CC)c1O | 91 to 93 °C |
| Nc1ccc(S(=O)c2ccc(Sc3ccc(Cl)c([N+](=O)[O-])c3)cc2)cc1[N+](=O)[O-] (centres undefined) | 170 to 172 °C |
| CCOC(=O)C(=NNc1ccc([N+](=O)[O-])cc1)C(C)=O | 128 °C |
| COC(=O)c1ccc2cccc(OS(=O)(=O)C(F)(F)F)c2n1 | 77 to 78 °C |
| COC(=O)C(=O)c1ccc(SC)c(Cl)c1 | 67.9 to 70.2 °C |
| O=C(c1ccccc1)N1CCN2c3ccccc3Cn3cccc3C2C1 (centres undefined) | 137 to 139 °C |
| CNCC1Cc2cc(C(F)(F)F)cc(-c3cc(F)ccc3F)c2O1 (centres undefined) | 138 to 140 °C |
| CNC(=O)C(C)Oc1ccc(O)cc1 (centres undefined) | 112 °C |
| CCNCC(=O)Nc1cc(NS(C)(=O)=O)c(Oc2ccccc2)cc1[N+](=O)[O-] | 156 to 157 °C |
| O=C(Nc1nc2ccc(C(F)(F)F)cc2s1)c1c(F)cccc1Cl | 265 to 270 °C |
| CCCCNC(=O)C(O[Si](C)(C)C(C)(C)C)C(C)(C)C (centres undefined) | 41 to 42 °C |
| COc1cc2cc(C(=O)NO)sc2cc1OC | 179 to 180 °C |

| SMILES | melting point |
| --- | --- |
| Cc1ccc2c(NCc3ccccc3)c3c(nc2c1)CCCC3O (centres undefined) | 148 to 153 °C |
| O=C1Oc2ccc3ccccc3c2CC1C(=O)c1cccc(C(F)(F)F)c1 (centres undefined) | 192 to 193 °C |
| COc1ccc(CCC(=O)O)cc1C(=O)NCc1cccnc1 | 175 to 176 °C |
| CC1=NS(=O)(=O)N(C)C(Oc2cccnc2)=N1 | 137 to 138 °C |
| O=C(O)CCCCCc1nn(-c2ccc([N+](=O)[O-])cc2)c2c1CCC2 | 131 to 132 °C |
| O=C1c2cc(OCCCl)ccc2-c2ccc(OCCCl)cc21 | 135 to 139 °C |
| CNC(=C[N+](=O)[O-])NOCCCc1csc(NC(=N)N)n1 | 144 to 146 °C |
| O=C(F)c1c(Cl)ccc2cc(C(F)(F)F)cnc12 | 98 to 99 °C |
| COc1cc(OC)c(OC(=O)CS(=O)(=O)Nc2c(C(C)C)cccc2C(C)C)c(OC)c1 | 167 to 170 °C |
| O=C(CCn1ccnc1)N1c2ccccc2S(=O)c2ccc(Cl)cc21 (centres undefined) | 148 to 149 °C |
| CC(C)n1nc(-c2sc(Nc3cccnc3)nc2-c2ccccc2)ccc1=O | 226 to 228 °C |
| CCNc1nnc2ccc(-c3cccc(N(C)C(C)=O)c3)nn12 | 225 to 227 °C |
| O=C(Oc1ccc([N+](=O)[O-])cc1)OC1CCN(C(=O)OCc2ccccc2)CC1 | 118 to 120 °C |
| CCn1cc(C)c(NS(=O)(=O)c2ccc(NC(C)=O)cc2)nc1=O | 235 to 239 °C |
| C[C@H]1C[C@H](C(=O)O)c2cc(Cl)c(Cl)cc2O1 (relative stereo) | 108 to 110 °C |
| CCCC(=NO)c1ccc(OCOC)cc1 | 74 to 76 °C |
| CCN(CC)CCNC(=O)c1cnc2cc(I)ccc2n1 | 60 to 62 °C |
| COc1cc2c(cc1O)CCC1C2CCC2(C)C1CCC21OCCO1 (centres undefined) | 150 to 151 °C |
| CCc1nnc2c3c(c(Cl)nn12)CCCC3 | 93 to 94 °C |
| COc1ccc(N2C(=O)C3=C(CCCC3)C2CC(=O)O)cc1 (centres undefined) | 203 to 204 °C |
| O=c1cc(-c2ccccc2)cc2n1CCN2Cc1ccccc1 | 165 to 167 °C |
| C[C@H](NC(=O)C[C@@H](CCBr)c1ccc(F)cc1)c1ccccc1 | 156 to 158 °C |
| CCOC(=O)NN=Cc1c[nH]c(COC)n1 | 186 to 190 °C |
| Clc1ccc2[nH]cc(C3CCNCC3)c2c1 | 156 to 158 °C |
| FC(F)(F)c1ccc(-c2cc(Oc3ccc4cccnc4c3)ncn2)c(NCC2CCCCC2)n1 | 151 to 152 °C |
| OCc1ccc(-c2ccc3nc(-c4ccc(Cl)cc4)cn3c2)o1 | 197 to 199 °C |
